Measured values from US20080194492A1, “Plant Extracts for the Treatment of Incresed Bone Resorption” (priority 2003, published 2008).
“Also recorded” adds a separate entry of the source.

System: osteoclasts of new-born rats
Assay: osteoclast pit assay (in vitro resorption activity of osteoclasts on ivory slices)
Type: cell-based, rat
Conditions: for magnitude of the inhibition when PTH is added compared with without (in words): PTH 10^−8 M added to cultures; for inhibition of osteoclast resorption activity in vitro (in words): osteoclast pit assay, dose not given
Experimental: It will be appreciated that the osteoclast pit assay is a well established in vitro model of bone resorption and readily known to one skilled in the art. Briefly, medium containing a sample to be tested, e.g. 30 mg or less of freeze-dried hydrophilic fraction A per ml, is added to osteoclasts of new-born rats settled on ivory slices. After 24 hours of incubation, the tartrate-resistant acid phosphatase positive multi-nucleated cells, i.e. osteoclasts, are counted. Subsequently, the number of resorption pits is determined. […] For the analysis of statistical significance, the ratios of the treated groups±their respective SEMs are compared to the 95% confidence interval of the SEM of the negative control. […] The inhibitory effect on osteoclasts is assessed by counting the osteoclast resorption pits on the ivory slice. […] To assess in vitro the bone resorbing inhibitory activity, the osteoclast pit assay is used. Medium containing 30 mg or less of freeze-dried fraction per ml is added to osteoclasts of new-born rats settled on ivory slices. After 24 hours of incubation, the tartrate-resistant acid phosphatase positive multi-nucleated cells, i.e. osteoclasts, are counted. Subsequently, the number of resorption pits is determined. […] For the analysis of statistical significance, the ratios of the treated groups±their respective SEMs are compared to the 95% confidence interval of the SEM of the negative control. • a) TLC-Screening and Yields of the RP-MPLC Fractionations. Bioassay (in vitro assessment of osteoclast activity). Osteoclasts were isolated from femora and tibiae of 2-day-old rats and settled for 40 min onto 4×4 mm ivory slices used as the mineralized substrate. After washing off non-adherent cells, individual slices were transferred to 48-well tissue culture plates and incubated for 24 h at 37° C. in a 5% CO2/air atmosphere (14;15) in medium containing 10% fetal bovine serum (FBS) with or without the material to be tested. The concentration of bicarbonate in the MEM Earle's medium was reduced to 15 mM by addition of 12M HCl. In each experiment calcitonin (salmon calcitonin, Novartis Pharma, Basel, Switzerland) was added as positive control at the concentration of 10^-11 M or 10^-12 M. In one experiment parathyroid hormone (PTH; bovine 1-34, Bachem, Bubendorf, Switzerland) was added at the concentration of 10^-8 M, in order to stimulate bone resorption. For each material to be tested 8 slices were used, for the untreated control 2×8 slices were used. After fixation osteoclasts were stained for tartrate-resistant acid-phosphatase (TRAP) (kit 386-A, Sigma, Buchs, Switzerland) and were counted blinded as TRAP positive (TRAP+) multinucleated (more than 2 nuclei) cells (MNC). After removing the cells, the slices were sputter coated with gold and the resorption pits counted blinded in a process described in Vitté, C.; Fleisch, H.: Guenther, H. L. Bisphosphonates induce osteoblasts to secrete an inhibitor of osteoclast-mediated resorption. Endocrinology 1996, 137, 2324-2333. Osteoclastic resorption activity is calculated as the ratio: resorption pits/TRAP+MNC.

Compound | activity on osteoclast resorption (in words) (0.53 mg/mL, i.e. 1.7 mM GPCS) | Pits/TRAP+ cells ± SEM (0.53 mg/mL, neg. control 0.739 ± 0.138) | inhibition of osteoclast resorption activity (in words) (2 mM) | resorption activity of osteoclasts (in words) (2, 4 and 8 mM, with or without PTH 10^−8 M (FIG. 4)) | magnitude of the inhibition when PTH is added compared with without (in words) | minimal effective dose (cultures not stimulated with PTH) | minimal effective dose, graphical interpolation from FIG. 4 (cultures stimulated with PTH) | inhibition of osteoclast resorption activity in vitro (in words) | inhibition of osteoclast resorption activity in vitro (in words) (listed as Fraction A 1-4C) | inhibition of osteoclast resorption activity in vitro (in words) (listed as Fraction A1-4C) | inhibition of osteoclast resorption activity in vitro (in words) (listed as fraction A1-4C) | Pits/TRAP+ cells ± SEM (10^−12 M, 24 h, neg. control 0.489 ± 0.128) | Pits/TRAP+ cells ± SEM (10^−12 M, neg. control 0.739 ± 0.138)
C/C=C/[S+]([O-])C[C@H](NC(=O)CC[C@H](N)C(=O)O)C(=O)O (relative stereo) [A1-4C, γ-L-glutamyl-trans-S-1-propenyl-L-cysteine sulfoxide] | active | 0.325 ± 0.108 | not significant | inhibits the resorption activity of osteoclasts dose-dependently | somewhat smaller | around 2 mM | around 3 mM | only active fraction | inhibited osteoclast activity nearly as strong as fraction A 1-4 | inhibits osteoclast activity similar to fraction A1-4 | significantly (p<0.5) inhibit bone resorption; also recorded: inhibiting osteoclast activity |  | 
CT: salmon calcitonin, Novartis Pharma, positive control [reference compound] |  |  |  |  | somewhat smaller |  |  |  |  |  |  | 0.061 ± 0.063 | 0.116 ± 0.030
